Values quoted from earlier work in patent US10463731B2, “Adjuvant combinations comprising alpha-galactosylceramide or iGb3, CD40 agonists and antigen” (IMMURX, INC., priority 2007, dated 2019).

System: tumors
Settings: monotherapy, mice

CCCCCCCCCCCCCCCCCCCCCCCCCC(=O)N[C@@H](CO[C@H]1O[C@H](CO)[C@H](O)[C@H](O)[C@H]1O)[C@H](O)[C@H](O)CCCCCCCCCCCCCC [α-Gal-Cer, alpha-galactosylceramide]
enhancement of immunity to tumors: limited success
